One series has as its target plasma kallikrein (Homo sapiens (Human), UniProt P03952). The series can be described thus: Enzyme assay, inhibition constant for human plasma kallikrein (chromogenic substrate, Dixon method). The class given is biochemical. The settings on record: 25° C., Tris HCl buffer pH 8.0, substrate H-D-Pro-Phe-Arg-pNA, mean of at least two measurements; read-out: Ki PK. The procedure: (§1) Reactions were started by addition of 50 μl of enzyme solution.
(§2) The Ki values are the mean of at least two measurements. Enzymes and substrates used are set out in Table 1 below: […]

Another series addresses Factor Xa (human) (Homo sapiens (Human), UniProt P00742). The series can be described thus: Enzyme assay, inhibition constant for factor Xa (chromogenic substrate, Dixon method). The class given is biochemical. The settings on record: read-out: Ki FXa. The procedure: as §1, §2
The target of a further series is thrombin (Bos taurus (Bovine), UniProt P00735). The experiment in a line: Enzyme assay, inhibition constant for thrombin (chromogenic substrate, Dixon method). Conditions: substrate CH3SO2-D-Cha-Gly-Arg-pNA, mean of at least two measurements. The class given is biochemical, Rind. The procedure: as §1, §2
Series [1] addresses T1, plasmin (Homo sapiens (Human), UniProt P00747). The experiment in a line: Enzyme assay, inhibition constant for human plasmin (chromogenic substrate, Dixon method). The class given is biochemical. Conditions: 25° C., Tris HCl buffer pH 8.0, substrate Tos-Gly-Pro-Lys-pNA, mean of at least two measurements; read-out: Ki h Plasmin. The procedure:
as §1, §2
Target sequence in this assay (P00747 581-810): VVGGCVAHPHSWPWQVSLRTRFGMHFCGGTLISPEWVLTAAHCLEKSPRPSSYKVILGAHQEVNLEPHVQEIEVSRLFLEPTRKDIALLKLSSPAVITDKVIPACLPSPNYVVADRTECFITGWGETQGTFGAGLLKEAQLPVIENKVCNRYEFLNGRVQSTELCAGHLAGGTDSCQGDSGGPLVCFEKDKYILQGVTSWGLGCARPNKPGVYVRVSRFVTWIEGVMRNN
Target sequence in this assay (P00747 97-580 partner): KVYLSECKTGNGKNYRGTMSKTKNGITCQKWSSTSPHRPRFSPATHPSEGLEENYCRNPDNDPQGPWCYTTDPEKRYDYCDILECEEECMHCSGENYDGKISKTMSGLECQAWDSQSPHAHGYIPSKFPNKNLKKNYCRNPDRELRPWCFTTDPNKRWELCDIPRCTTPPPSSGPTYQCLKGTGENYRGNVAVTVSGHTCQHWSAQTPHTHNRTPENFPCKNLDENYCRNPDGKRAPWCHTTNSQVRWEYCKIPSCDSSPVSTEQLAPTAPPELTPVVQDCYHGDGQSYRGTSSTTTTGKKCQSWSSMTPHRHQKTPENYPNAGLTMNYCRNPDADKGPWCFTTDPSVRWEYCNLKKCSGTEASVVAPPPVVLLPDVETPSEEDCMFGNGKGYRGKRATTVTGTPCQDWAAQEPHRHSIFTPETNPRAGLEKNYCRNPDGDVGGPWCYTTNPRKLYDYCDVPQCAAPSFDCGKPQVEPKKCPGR

Series [2] addresses T1, plasmin. The settings on record: background, literature; read-out: Ki / inhibition constant for plasmin; cited from earlier work.
Target sequence in this assay (P00747 581-810, species assumed): as the sequence (P00747 581-810) above
Target sequence in this assay (P00747 97-580 partner, species assumed): as the sequence (P00747 97-580 partner) above
For series [3] the following is noted: cited from earlier work.
The target in another series is trypsin. The settings on record: background; cited from earlier work.
The mark [4] stands for this setting: substrate CH3OCO-D-Cha-Gly-Arg-pNA, mean of at least two measurements.

Here are results for 16 compounds from patent publication US8921319B2, “Serine protease inhibitors” (The Medicines Company (Leipzig) GmbH, priority 2010, dated 2014).

Read-outs that look alike come from different tables or passages of the source. Bounds are passed on as bounds.

Chain of plasma kallikrein (P03952 391-638): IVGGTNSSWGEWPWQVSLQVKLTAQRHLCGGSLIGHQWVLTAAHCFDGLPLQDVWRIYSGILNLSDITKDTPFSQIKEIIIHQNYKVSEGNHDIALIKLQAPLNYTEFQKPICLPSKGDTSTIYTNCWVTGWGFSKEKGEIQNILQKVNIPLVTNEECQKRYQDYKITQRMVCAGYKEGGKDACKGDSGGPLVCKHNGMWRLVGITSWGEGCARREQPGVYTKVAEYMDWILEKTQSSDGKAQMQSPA
Chain of plasma kallikrein (P03952 20-390 partner): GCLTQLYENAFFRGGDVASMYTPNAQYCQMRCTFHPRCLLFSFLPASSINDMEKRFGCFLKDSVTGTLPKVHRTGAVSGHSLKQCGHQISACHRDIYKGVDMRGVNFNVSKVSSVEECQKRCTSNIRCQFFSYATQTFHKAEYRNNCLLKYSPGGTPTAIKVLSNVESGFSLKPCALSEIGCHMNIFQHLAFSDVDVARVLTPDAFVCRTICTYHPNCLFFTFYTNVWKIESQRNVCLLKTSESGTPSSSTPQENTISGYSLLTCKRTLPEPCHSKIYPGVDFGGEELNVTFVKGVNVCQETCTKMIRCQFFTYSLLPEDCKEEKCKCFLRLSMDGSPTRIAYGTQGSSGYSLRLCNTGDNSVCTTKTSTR
Chain of Factor Xa (human) (P00742 235-488): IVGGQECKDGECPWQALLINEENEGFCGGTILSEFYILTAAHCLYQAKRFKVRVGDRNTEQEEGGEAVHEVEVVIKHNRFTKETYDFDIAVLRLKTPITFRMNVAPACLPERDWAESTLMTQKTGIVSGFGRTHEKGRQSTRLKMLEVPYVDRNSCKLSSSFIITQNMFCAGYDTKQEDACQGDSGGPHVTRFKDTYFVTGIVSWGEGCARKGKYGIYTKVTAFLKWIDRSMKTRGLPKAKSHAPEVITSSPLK
Chain of Factor Xa (human) (P00742 41-179 partner): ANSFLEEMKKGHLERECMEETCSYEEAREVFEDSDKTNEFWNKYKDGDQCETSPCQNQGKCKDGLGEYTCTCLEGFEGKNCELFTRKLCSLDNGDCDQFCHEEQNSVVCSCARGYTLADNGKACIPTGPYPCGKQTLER

`N=C(N)c1ccc(CNC(=O)[C@@H]2Cc3cccc(c3)CNC(=O)CN3CCN(CC3)CC(=O)NCc3cccc(c3)C[C@@H](NS(=O)(=O)Cc3ccccc3)C(=O)N2)cc1` [Inhibitor 8]: the Ki on plasma kallikrein came out at 31.6 nM; on Factor Xa (human) (setting [4]) it was 26.3 nM; on thrombin, 9.1 nM.

As for `N=C(N)c1ccc(CNC(=O)[C@@H]2Cc3cccc(c3)CNC(=O)Cc3ccccc3CC(=O)NCc3cccc(c3)C[C@@H](NS(=O)(=O)Cc3ccccc3)C(=O)N2)cc1` [Inhibitor 7], the Ki stood at 8.9 nM at plasma kallikrein, 103 nM at Factor Xa (human) (setting [4]) and 575 nM on thrombin.

As to `N=C(N)c1ccc(CNC(=O)[C@@H]2CCC(=O)NCc3cccc(c3)CNC(=O)CC[C@@H](NS(=O)(=O)Cc3ccccc3)C(=O)N2)cc1` [Inhibitor 13], the values for the Ki at plasma kallikrein, on Factor Xa (human) (setting [4]) and at thrombin were 25 nM, 3430 nM and 2020 nM, respectively.

On to `N=C(N)c1ccc(CNC(=O)[C@@H]2Cc3ccc(cc3)OCCCCOc3ccc(cc3)C[C@@H](NS(=O)(=O)Cc3ccccc3)C(=O)N2)cc1` [Inhibitor 11], for which the Ki was 34.2 nM at plasma kallikrein, 2010 nM at Factor Xa (human) (setting [4]), 510 nM at thrombin and 1.9 nM at plasmin [1].

With `N=C(N)c1ccc(CNC(=O)[C@@H]2Cc3ccc(cc3)CNC(=O)CN3CCN(CC3)CC(=O)NCc3ccc(cc3)C[C@@H](NS(=O)(=O)Cc3ccccc3)C(=O)N2)cc1` [Inhibitor 9], the values for the Ki at plasma kallikrein, at Factor Xa (human) (setting [4]) and at thrombin were 493 nM, 3470 nM and 2120 nM, respectively.

Turning to `N=C(N)c1ccc(CNC(=O)[C@@H]2Cc3ccc(cc3)CNC(=O)Cc3cccc(c3)CC(=O)NCc3ccc(cc3)C[C@@H](NS(=O)(=O)Cc3ccccc3)C(=O)N2)cc1` [Inhibitor 3], the figures for the Ki on plasma kallikrein, at Factor Xa (human) (setting [4]) and at thrombin were 550 nM, 5700 nM and 3000 nM, respectively.

As for `N=C(N)c1ccc(CNC(=O)[C@@H]2Cc3cn(nn3)Cc3ccc(cc3)Cn3cc(nn3)C[C@@H](NS(=O)(=O)Cc3ccccc3)C(=O)N2)cc1` [Inhibitor 14], the Ki on plasma kallikrein worked out at 12 nM; on Factor Xa (human) (setting [4]), 600 nM; at thrombin it was 219 nM; at plasmin [1], 5.4 nM.

`N=C(N)c1ccc(CNC(=O)[C@@H]2Cc3cn(nn3)Cc3cccc(n3)Cn3cc(nn3)C[C@@H](NS(=O)(=O)Cc3ccccc3)C(=O)N2)cc1` [Inhibitor 2]: the Ki on plasma kallikrein stood at 10.1 nM; at Factor Xa (human) (setting [4]), 1860 nM; on thrombin, 4560 nM; on plasmin [1] it was 2.2 nM.

As to `N=C(N)c1ccc(CNC(=O)[C@@H]2CCN2C(=O)[C@H](NCC(=O)O)C2CCCCC2)cc1` [melagatran], the Ki on plasmin [2] was 700 nM.

In the case of `N=C(N)c1ccc(CNC(=O)[C@@H]2Cc3cccc(c3)CNC(=O)Cc3cccc(c3)CC(=O)NCc3cccc(c3)C[C@@H](NS(=O)(=O)Cc3ccccc3)C(=O)N2)cc1` [Inhibitor 5], the Ki worked out at 17.4 nM on plasma kallikrein, 42.1 nM at Factor Xa (human) (setting [4]) and 26.8 nM on thrombin.

For aprotinin, the entries for the “risk of anaphylactic shock” value in series [3] (first administration) and in series [3] (repeated administration within 200 days) were < 0.1% and 4-5%, respectively. Also, at trypsin, the Ki is 0.1 nM.

Consider `N=C(N)c1ccc(CNC(=O)[C@@H]2CCCCNC(=O)c3cccc(c3)C(=O)NCCCC[C@@H](NS(=O)(=O)Cc3ccccc3)C(=O)N2)cc1` [Inhibitor 12], for which the Ki at plasma kallikrein turned out to be 18 nM; at Factor Xa (human) (setting [4]) it was 376 nM; at thrombin, 187 nM; at plasmin [1] it was 38 nM.

Consider `N=C(N)c1ccc(CNC(=O)[C@@H]2Cc3ccc(cc3)CNC(=O)Cc3ccc(cc3)CC(=O)NCc3ccc(cc3)C[C@@H](NS(=O)(=O)Cc3ccccc3)C(=O)N2)cc1` [Inhibitor 4], for which the Ki on plasma kallikrein stood at 868 nM; on Factor Xa (human) (setting [4]) it was 9370 nM; at thrombin, 6520 nM.

Take `N=C(N)c1ccc(CNC(=O)[C@@H]2Cc3ccc(cc3)NC(=O)CN3CCN(CC3)CC(=O)Nc3ccc(cc3)C[C@@H](NS(=O)(=O)Cc3ccccc3)C(=O)N2)cc1` [Inhibitor 15]: the Ki at plasma kallikrein was 320 nM; at Factor Xa (human) (setting [4]), > 10000 nM; at thrombin, 8400 nM; on plasmin [1] it was 0.68 nM.

On to `N=C(N)c1ccc(CNC(=O)[C@@H]2Cc3cn(nn3)Cc3cccc(c3)Cn3cc(nn3)C[C@@H](NS(=O)(=O)Cc3ccccc3)C(=O)N2)cc1` [Inhibitor 1], for which the Ki at plasma kallikrein was 2.4 nM; on Factor Xa (human) (setting [4]), 206 nM; at thrombin it was 4300 nM; at plasmin [1] it was 0.77 nM.

As for `N=C(N)c1ccc(CNC(=O)[C@@H]2Cc3cccc(c3)CNC(=O)Cc3ccc(cc3)CC(=O)NCc3cccc(c3)C[C@@H](NS(=O)(=O)Cc3ccccc3)C(=O)N2)cc1` [Inhibitor 6], the Ki at plasma kallikrein was 136 nM; on Factor Xa (human) it was 152 nM; on thrombin, 45.4 nM.
